This assay concerns the target S. aureus GyrB ATPase (Staphylococcus aureus, UniProt P0A0K8). The assay is described as follows: S. aureus (SAU) GyrB ATPase inhibition, malachite green phosphate detection (E. coli GyrA + S. aureus GyrB). The class given is biochemical. Particulars: compound concentration of 1.0 μM unless otherwise noted; average value where assay was carried out more than once; read-out: S. aureus (SAU) GyrB ATPase % Inhibition. The procedure, abridged:
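E. coli GyrA and S. aureus GyrB (1.25 nM each) with 500 μM ATP and 5 μg/ml sheared salmon sperm DNA in 50 mM Hepes pH 7.5, 8.0 mM MgCl2. Released phosphate detected with ammonium molybdate/malachite green at 650 nm; 2% DMSO as 0% and 2 μM novobiocin as 100% inhibition; IC50 from 10 concentrations.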

The values that follow come from US20120101100A1 (priority 2008, published 2012).

Sequence of S. aureus GyrB ATPase (P0A0K8 whole entry): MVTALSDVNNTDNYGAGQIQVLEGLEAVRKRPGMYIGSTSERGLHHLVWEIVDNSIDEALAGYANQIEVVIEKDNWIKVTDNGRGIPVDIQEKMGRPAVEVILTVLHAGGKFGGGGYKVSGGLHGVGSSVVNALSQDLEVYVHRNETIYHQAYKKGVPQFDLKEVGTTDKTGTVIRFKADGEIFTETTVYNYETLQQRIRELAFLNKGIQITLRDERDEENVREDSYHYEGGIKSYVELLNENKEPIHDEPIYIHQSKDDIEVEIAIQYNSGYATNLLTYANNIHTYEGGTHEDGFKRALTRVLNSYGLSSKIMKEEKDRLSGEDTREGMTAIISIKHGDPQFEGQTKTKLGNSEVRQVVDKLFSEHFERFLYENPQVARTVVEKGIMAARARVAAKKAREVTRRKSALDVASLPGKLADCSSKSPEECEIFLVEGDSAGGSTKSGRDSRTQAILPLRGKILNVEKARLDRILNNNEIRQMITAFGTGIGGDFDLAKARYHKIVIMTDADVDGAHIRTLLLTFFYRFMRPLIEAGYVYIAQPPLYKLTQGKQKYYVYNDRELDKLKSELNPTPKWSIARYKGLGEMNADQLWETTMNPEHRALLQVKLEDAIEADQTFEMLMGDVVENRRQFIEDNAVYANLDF
Sequence of S. aureus GyrB ATPase (P0AES4 whole entry, further chain): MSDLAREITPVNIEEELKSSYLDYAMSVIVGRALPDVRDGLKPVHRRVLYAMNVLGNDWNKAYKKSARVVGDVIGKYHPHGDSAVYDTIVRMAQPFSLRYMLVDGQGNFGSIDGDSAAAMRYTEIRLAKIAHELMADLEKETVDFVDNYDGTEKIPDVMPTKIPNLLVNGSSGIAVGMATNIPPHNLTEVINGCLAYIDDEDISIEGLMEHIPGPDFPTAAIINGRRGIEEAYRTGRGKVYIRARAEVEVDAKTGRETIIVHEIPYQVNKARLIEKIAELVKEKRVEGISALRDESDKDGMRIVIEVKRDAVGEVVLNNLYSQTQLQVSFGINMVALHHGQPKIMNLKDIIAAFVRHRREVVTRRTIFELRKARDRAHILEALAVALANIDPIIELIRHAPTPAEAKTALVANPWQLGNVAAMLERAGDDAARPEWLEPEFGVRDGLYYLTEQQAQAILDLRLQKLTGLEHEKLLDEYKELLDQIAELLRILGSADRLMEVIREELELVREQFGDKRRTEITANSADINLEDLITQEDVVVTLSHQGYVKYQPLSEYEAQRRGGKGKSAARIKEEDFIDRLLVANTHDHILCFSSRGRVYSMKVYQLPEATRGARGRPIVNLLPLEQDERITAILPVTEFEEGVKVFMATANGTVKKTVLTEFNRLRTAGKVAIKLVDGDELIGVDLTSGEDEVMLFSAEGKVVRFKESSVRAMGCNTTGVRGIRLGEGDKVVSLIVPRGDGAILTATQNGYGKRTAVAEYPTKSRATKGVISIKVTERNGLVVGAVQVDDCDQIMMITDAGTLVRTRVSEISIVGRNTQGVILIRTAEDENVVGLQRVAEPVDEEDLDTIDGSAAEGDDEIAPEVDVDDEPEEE

As usually defined, the inhibition is the relative decrease from the control value, in per cent. `CCNC(=O)Nc1cc(-c2nc(C(F)(F)F)cs2)c(-c2cncc(-c3nn(C(=O)N4CCCC4)c(=O)o3)c2)cn1` [Example 159]: the inhibition at 1 µM is 97%.

For `CCNC(=O)Nc1cc(-c2nc(C(F)(F)F)cs2)c(-c2cncc(-c3nn(CCOC)c(=O)o3)c2)cn1` [Example 160], the inhibition at 1 µM is 98%.

`CCNC(=O)Nc1cc(-c2nc(C(F)(F)F)cs2)c(-c2cncc(-c3nn(C(C)=O)c(=O)o3)c2)cn1` [Example 161]: the inhibition at 1 µM was 97%.

As to `CCNC(=O)Nc1cc(-c2nc(C(F)(F)F)cs2)c(-c2cncc(-c3nn(CCO)c(=O)o3)c2)cn1` [Example 162], the inhibition at 1 µM was determined as 98%.

With `CCNC(=O)Nc1cc(-c2nc(C(F)(F)F)cs2)c(-c2cncc(/C(N)=N/O)c2)cn1` [Example 163, 6′-(3-Ethylureido)-N′-hydroxy-4′-(4-(trifluoromethyl)thiazol-2-yl)-3,3′-bipyridine-5-carboximidamide], the inhibition at 1 µM is 96%.

`CCNC(=O)Nc1cc(-c2nc(C(F)(F)F)cs2)c(-c2cncc(C(=N)N)c2)cn1` [Example 164, 6′-(3-Ethylureido)-4′-(4-(trifluoromethyl)thiazol-2-yl)-3,3′-bipyridine-5-carboximidamide]: the inhibition at 1 µM came to 96%.

As to `CCNC(=O)Nc1cc(-n2ccc(C(F)(F)F)n2)c(-c2cncc(-c3nnc([C@@H](N)C(C)C)o3)c2)cn1` [Example 165], the inhibition at 1 µM stood at 98%.

Consider `CCNC(=O)Nc1cc(-c2nc(C(F)(F)F)cs2)c(-c2cncc(-c3nnc(C4CC4)o3)c2)cn1` [Example 166, 1-(5′-(5-Cyclopropyl-1,3,4-oxadiazol-2-yl)-4-(4-(trifluoromethyl)thiazol-2-yl)-3,3′-bipyridin-6-yl)-3-ethylurea], for which the inhibition at 1 µM amounted to 72%.

In the case of `CCCNC(=O)Nc1cc(-c2nc(C(F)(F)F)cs2)c(-c2cc(-c3nnc(C)o3)cnc2OCCN(C)C)cn1` [Example 167], the inhibition at 1 µM was 96%.

Consider `CCCNC(=O)Nc1cc(-c2nc(C(F)(F)F)cs2)c(-c2cc(-c3nnc(C)o3)cnc2OCCN2CCCC2)cn1` [Example 168], for which the inhibition at 1 µM turned out to be 69%.

In the case of `CCCNC(=O)Nc1cc(-c2nc(C(F)(F)F)cs2)c(-c2cc(-c3nnc(C)o3)cnc2OC2CCOCC2)cn1` [Example 169, 1-(5′-(5-Methyl-1,3,4-oxadiazol-2-yl)-2′-(tetrahydro-2H-pyran-4-yloxy)-4-(4-(trifluoromethyl)thiazol-2-yl)-3,3′-bipyridin-6-yl)-3-propylurea], the inhibition at 1 µM amounted to 96%.

Consider `CCCNC(=O)Nc1cc(-c2nc(C(F)(F)F)cs2)c(-c2cc(-c3n[nH]c(=O)o3)cnc2OCCN2CCCC2)cn1` [Example 171], for which the inhibition at 1 µM is 106%.

In the case of `CCCNC(=O)Nc1cc(-c2nc(C(F)(F)F)cs2)c(-c2cncc(-c3nnc(C)o3)c2)cn1` [Example 173, 1-(5′-(5-methyl-1,3,4-oxadiazol-2-yl)-4-(4-(trifluoromethyl)thiazol-2-yl)-3,3′-bipyridin-6-yl)-3-propylurea], the inhibition at 1 µM was 95%.

`CCCNC(=O)Nc1cc(-c2nc(C(F)(F)F)cs2)c(-c2ccnc(-c3nnc(O)o3)c2)cn1` [Example 175, 1-(2′-(5-hydroxy-1,3,4-oxadiazol-2-yl)-4-(4-(trifluoromethyl)thiazol-2-yl)-3,4′-bipyridin-6-yl)-3-propylurea]: the inhibition at 1 µM was found to be 93%.

As to `CCNC(=O)Nc1cc(-c2nc(C(F)(F)F)cs2)c(-c2cncc(-c3nn(C(=O)N4CCOCC4)c(=O)o3)c2)cn1` [Example 176], the inhibition at 1 µM came out at 98%.

Take `CCNC(=O)Nc1cc(-c2nc(C(F)(F)F)cs2)c(-c2cncc(-c3nn(C(=O)N4CCCCC4)c(=O)o3)c2)cn1` [Example 177]: the inhibition at 1 µM came out at 86%.

Take `CCNC(=O)Nc1cc(-c2nc(C(F)(F)F)cs2)c(-c2cncc(-c3nnc(N4CC[C@@H](O)C4)o3)c2)cn1` [Example 178]: the inhibition at 1 µM came out at 97%.

Consider `CCNC(=O)Nc1cc(-c2nc(C(F)(F)F)cs2)c(-c2cncc(-c3nnc(N4CC[C@H](O)C4)o3)c2)cn1` [Example 179], for which the inhibition at 1 µM stood at 101%.

On to `CCNC(=O)Nc1cc(-c2nc(C(F)(F)F)cs2)c(-c2cncc(-c3nnc(N4CCC(O)CC4)o3)c2)cn1` [Example 180], for which the inhibition at 1 µM was 96%.

On to `CCNC(=O)Nc1cc(-c2nc(C(F)(F)F)cs2)c(-c2cncc(-c3nnc(N4CCCC(O)C4)o3)c2)cn1` (stereo not shown) [Example 181], for which the inhibition at 1 µM was found to be 97%.

Turning to `CCNC(=O)Nc1cc(-c2nc(C(F)(F)F)cs2)c(-c2cncc(-c3nnc(N4CC(O)C4)o3)c2)cn1` [Example 182], the inhibition at 1 µM is 99%.

For the compound `CCNC(=O)Nc1cc(-c2nc(C(F)(F)F)cs2)c(-c2cncc(-c3nnc([C@@H](N)C(C)C)o3)c2)cn1` [Example 183], the inhibition at 1 µM turned out to be 96%.

Regarding `CCNC(=O)Nc1cc(-c2nc(-c3cnn(C)c3)cs2)c(-c2cncc(S(N)(=O)=O)c2)cn1` [Example 185], the inhibition at 1 µM is 99%.

On to `CCNC(=O)Nc1cc(-c2nc(C(F)(F)F)cs2)c(-c2cc(-c3n[nH]c(=O)o3)cnc2OCCN2CCCC2)cn1` [Example 186], for which the inhibition at 1 µM was 110%.

`CCNC(=O)Nc1cc(-c2nc(C(F)(F)F)cs2)c(-c2cc(-c3n[nH]c(=O)o3)cnc2OC2CCOCC2)cn1` [Example 187]: the inhibition at 1 µM worked out at 100%.

Consider `CCNC(=O)Nc1cc(-c2nc(C(F)(F)F)cs2)c(-c2nc(-c3n[nH]c(=O)o3)cs2)cn1` [Example 188], for which the inhibition at 1 µM is 97%.

With `CCNC(=O)Nc1cc(-c2nc(C(F)(F)F)cs2)c(-c2cnc(OC)c(-c3n[nH]c(=O)o3)c2)cn1` [Example 189], the inhibition at 1 µM is 103%.

Consider `CCNC(=O)Nc1cc(-c2nc(C(F)(F)F)cs2)c(-c2cnc(-c3n[nH]c(=O)o3)cn2)cn1` [Example 190], for which the inhibition at 1 µM was 100%.

`CCNC(=O)Nc1cc(-c2nc(C(F)(F)F)cs2)c(-c2ccc(-c3n[nH]c(=O)o3)nn2)cn1` [Example 191]: the inhibition at 1 µM worked out at 99%.

As to `CCNC(=O)Nc1cc(-c2nnc(-c3ccccc3)o2)c(-c2ccnc(-c3n[nH]c(=O)o3)c2)cn1` [Example 192], the inhibition at 1 µM amounted to 101%.

`CCNC(=O)Nc1cc(-c2nnc(-c3ccccc3)o2)c(-c2nc(-c3n[nH]c(=O)o3)cs2)cn1` [Example 193]: the inhibition at 1 µM is 89%.

On to `CCNC(=O)Nc1cc(-c2nnc(-c3ccccc3)o2)c(-c2ncc(-c3n[nH]c(=O)o3)s2)cn1` [Example 194], for which the inhibition at 1 µM was determined as 101%.

Turning to `CCNC(=O)Nc1cc(-c2nnc(-c3ccccc3)o2)c(-c2cnc(-c3n[nH]c(=O)o3)cn2)cn1` [Example 195], the inhibition at 1 µM turned out to be 98%.

Take `CCNC(=O)Nc1cc(-c2nnc(-c3ccccc3)o2)c(-c2cncc(-c3n[nH]c(=O)o3)c2)cn1` [Example 196]: the inhibition at 1 µM was determined as 118%.

Regarding `CCNC(=O)Nc1cc(-c2nnc(-c3ccccc3)o2)c(-c2cnc(OC)c(-c3n[nH]c(=O)o3)c2)cn1` [Example 197], the inhibition at 1 µM worked out at 106%.

Take `CCNC(=O)Nc1cc(-c2nnc(-c3ccc(F)cc3)o2)c(-c2cncc(-c3n[nH]c(=O)o3)c2)cn1` [Example 198]: the inhibition at 1 µM was found to be 104%.

Consider `CCNC(=O)Nc1cc(-c2nc(-c3ccccc3)cs2)c(-c2nc(-c3ncccn3)c(-c3n[nH]c(=O)o3)s2)cn1` [Example 199], for which the inhibition at 1 µM was determined as 94%.

On to `CCNC(=O)Nc1cc(-c2nc(-c3ccccc3)cs2)c(-c2nc(-c3ncnn3C)c(-c3n[nH]c(=O)o3)s2)cn1` [Example 200], for which the inhibition at 1 µM came to 93%.

For `CCNC(=O)Nc1cc(-c2nc(-c3ccccn3)cs2)c(-c2nc(-c3ncccn3)c(-c3n[nH]c(=O)o3)s2)cn1` [Example 201], the inhibition at 1 µM was 107%.

For `CCNC(=O)Nc1cc(-c2nc(-c3cccc(OC)n3)cs2)c(-c2cncc(-c3n[nH]c(=O)o3)c2)cn1` [Example 202], the inhibition at 1 µM was found to be 43%.

`CCNC(=O)Nc1cc(-c2nc(-c3ccc(OC)nc3)cs2)c(-c2cncc(-c3n[nH]c(=O)o3)c2)cn1` [Example 203]: the inhibition at 1 µM was found to be 104%.

For `CCNC(=O)Nc1cc(-c2nc(-c3cccnc3F)cs2)c(-c2cncc(-c3n[nH]c(=O)o3)c2)cn1` [Example 204], the inhibition at 1 µM worked out at 101%.

For the compound `CCNC(=O)Nc1cc(-c2nc(-c3cnn(C)c3)cs2)c(-c2cnc(OC)c(-c3n[nH]c(=O)o3)c2)cn1` [Example 205], the inhibition at 1 µM was found to be 100%.

In the case of `CCNC(=O)Nc1cc(-c2nc(-c3cnn(C)c3)cs2)c(-c2cncc(-c3n[nH]c(=O)o3)n2)cn1` [Example 206], the inhibition at 1 µM worked out at 99%.

For `CCNC(=O)Nc1cc(-c2nc(-c3cccnc3OCCOC)cs2)c(-c2cnc(OC)c(-c3n[nH]c(=O)o3)c2)cn1` [Example 207], the inhibition at 1 µM was 101%.

Turning to `CCNC(=O)Nc1cc(-c2nc(-c3cccnc3OCCOC)cs2)c(-c2cncc(-c3n[nH]c(=O)o3)c2)cn1` [Example 208], the inhibition at 1 µM was 100%.

On to `CCNC(=O)Nc1cc(-c2nc(C3CCCC3)cs2)c(-c2cncc(-c3n[nH]c(=O)o3)c2)cn1` [Example 209], for which the inhibition at 1 µM amounted to 95%.

`CCNC(=O)Nc1cc(-c2nc(C3CC3)cs2)c(-c2cncc(-c3n[nH]c(=O)o3)c2)cn1` [Example 210]: the inhibition at 1 µM worked out at 65%.

Take `CCNC(=O)Nc1cc(-c2nc(C3CCCCC3)cs2)c(-c2cncc(-c3n[nH]c(=O)o3)c2)cn1` [Example 211]: the inhibition at 1 µM turned out to be 109%.

For the compound `CCNC(=O)Nc1cc(-c2nc(C3CCOC(C)(C)C3)cs2)c(-c2cncc(-c3n[nH]c(=O)o3)c2)cn1` (stereo not shown) [Example 212], the inhibition at 1 µM came out at 97%.

As for `CCNC(=O)Nc1cc(-c2nc(C3CCN(C(=O)n4ccnc4)CC3)cs2)c(-c2cncc(-c3n[nH]c(=O)o3)c2)cn1` [Example 213], the inhibition at 1 µM was 95%.

As for `CCNC(=O)Nc1cc(-c2nc(C(F)(F)F)cs2)c(-c2cc(-c3n[nH]c(=O)o3)cnc2OC2CCCCC2)cn1` [Example 214], the inhibition at 1 µM amounted to 109%.
